For assay [1], the target named is MAP kinase-activated protein kinase 3 (Homo sapiens) (UniProt Q16644). Briefly: Selectivity interaction (Kinase panel (Z-LYTE Assay)) EUB0001632a MAPKAPK3. To be noted: at 10 µM.
Assay [2] deals with Serine/threonine-protein kinase 38-like (Homo sapiens) (UniProt Q9Y2H1). Briefly: Selectivity interaction (Kinase panel (KiNativ target engagement assay in Jurkat cells)) EUB0001635a STK38L. It is filed as cell-based. Particulars: Selectivity number of off-targets 0.0, Selectivity number of targets 233.0, Source Knowledge https://www.sciencedirect.com/science/article/pii/S2451945619300674?via%3Dihub, at 1 µM.
Serine/threonine-protein kinase 38-like (Homo sapiens), sequence (Q9Y2H1 2-464 limits assumed): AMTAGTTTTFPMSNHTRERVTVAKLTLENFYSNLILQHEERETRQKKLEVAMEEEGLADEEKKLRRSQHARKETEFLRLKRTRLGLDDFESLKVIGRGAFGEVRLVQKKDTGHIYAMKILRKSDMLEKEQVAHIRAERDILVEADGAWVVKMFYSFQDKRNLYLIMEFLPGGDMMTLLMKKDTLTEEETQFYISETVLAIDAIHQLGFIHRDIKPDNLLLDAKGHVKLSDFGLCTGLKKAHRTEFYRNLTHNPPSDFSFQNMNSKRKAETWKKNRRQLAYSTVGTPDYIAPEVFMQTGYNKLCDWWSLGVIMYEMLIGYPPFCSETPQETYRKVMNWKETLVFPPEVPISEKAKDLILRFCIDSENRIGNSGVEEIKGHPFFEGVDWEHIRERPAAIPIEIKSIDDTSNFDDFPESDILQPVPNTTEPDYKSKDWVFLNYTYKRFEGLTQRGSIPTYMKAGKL

For assay [3], the target named is Serine/threonine-protein kinase SIK1 (Homo sapiens) (UniProt P57059). Briefly: Selectivity interaction (Ambit KINOMEscan and KiNATiv profiling in Jurkat cells) EUB0000090b SIK1. The format is cell-based. To be noted: at 1 µM.
The target of assay [4] is Tyrosine-protein kinase Yes (Homo sapiens) (UniProt P07947). Description: Selectivity interaction (KinomeScan (DiscoverX)) EUB0000229b YES1. Particulars: at 10 µM.
Assay [5] concerns the target Rho-associated protein kinase 1 (Homo sapiens) (UniProt Q13464). Briefly: Selectivity interaction (ActivX KiNativ screen (ex vivo kinase selectivity in human PBMCs)) EUB0001619a ROCK1. To be noted: PBMC, at 1 µM. The format is cell-based.
Assay [6] has as its target Cyclin-dependent kinase 2 (Homo sapiens, UniProt P24941). Briefly: Selectivity interaction (ActivX KiNativ screen (ex vivo kinase selectivity in human PBMCs)) EUB0001619a CDK2. The format is cell-based. To be noted: PBMC, at 1 µM.
The target in assay [7] is Serine/threonine-protein kinase SMG1 (Homo sapiens) (UniProt Q96Q15). Briefly: Selectivity interaction (ActivX KiNativ screen (kinase selectivity in THP-1 cell lysates)) EUB0000639a SMG1. The format is subcellular. To be noted: lysate, at 0.01 µM.
The target in assay [8] is T1, Serine/threonine-protein kinase ULK3 (Homo sapiens) (UniProt Q6PHR2).
T1 sequence (whole entry): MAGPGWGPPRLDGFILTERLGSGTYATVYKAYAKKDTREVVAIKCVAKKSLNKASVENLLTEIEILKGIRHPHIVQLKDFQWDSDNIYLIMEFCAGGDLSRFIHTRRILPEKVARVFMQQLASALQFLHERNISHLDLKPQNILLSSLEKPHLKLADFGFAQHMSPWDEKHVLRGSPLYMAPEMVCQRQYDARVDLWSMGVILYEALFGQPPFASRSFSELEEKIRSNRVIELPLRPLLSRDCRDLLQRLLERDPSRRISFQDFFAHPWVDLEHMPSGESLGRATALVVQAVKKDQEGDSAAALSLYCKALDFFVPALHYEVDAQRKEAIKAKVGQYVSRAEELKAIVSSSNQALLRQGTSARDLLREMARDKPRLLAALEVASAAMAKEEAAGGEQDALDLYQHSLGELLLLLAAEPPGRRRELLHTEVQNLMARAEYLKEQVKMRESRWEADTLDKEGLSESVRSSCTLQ
Briefly: Selectivity interaction (ActivX KiNativ screen (kinase selectivity in THP-1 cell lysates)) EUB0000639a ULK3. The format is subcellular. Particulars: lysate, at 0.04 µM.

The target in assay [9] is Mitogen-activated protein kinase kinase kinase 14 (Homo sapiens) (UniProt Q99558). Description: Selectivity interaction (Kinase panel (Invitrogen)) EUB0000639a MAP3K14. To be noted: at 200 nM.
Mitogen-activated protein kinase kinase kinase 14 (Homo sapiens), sequence (Q99558 whole entry, looked up): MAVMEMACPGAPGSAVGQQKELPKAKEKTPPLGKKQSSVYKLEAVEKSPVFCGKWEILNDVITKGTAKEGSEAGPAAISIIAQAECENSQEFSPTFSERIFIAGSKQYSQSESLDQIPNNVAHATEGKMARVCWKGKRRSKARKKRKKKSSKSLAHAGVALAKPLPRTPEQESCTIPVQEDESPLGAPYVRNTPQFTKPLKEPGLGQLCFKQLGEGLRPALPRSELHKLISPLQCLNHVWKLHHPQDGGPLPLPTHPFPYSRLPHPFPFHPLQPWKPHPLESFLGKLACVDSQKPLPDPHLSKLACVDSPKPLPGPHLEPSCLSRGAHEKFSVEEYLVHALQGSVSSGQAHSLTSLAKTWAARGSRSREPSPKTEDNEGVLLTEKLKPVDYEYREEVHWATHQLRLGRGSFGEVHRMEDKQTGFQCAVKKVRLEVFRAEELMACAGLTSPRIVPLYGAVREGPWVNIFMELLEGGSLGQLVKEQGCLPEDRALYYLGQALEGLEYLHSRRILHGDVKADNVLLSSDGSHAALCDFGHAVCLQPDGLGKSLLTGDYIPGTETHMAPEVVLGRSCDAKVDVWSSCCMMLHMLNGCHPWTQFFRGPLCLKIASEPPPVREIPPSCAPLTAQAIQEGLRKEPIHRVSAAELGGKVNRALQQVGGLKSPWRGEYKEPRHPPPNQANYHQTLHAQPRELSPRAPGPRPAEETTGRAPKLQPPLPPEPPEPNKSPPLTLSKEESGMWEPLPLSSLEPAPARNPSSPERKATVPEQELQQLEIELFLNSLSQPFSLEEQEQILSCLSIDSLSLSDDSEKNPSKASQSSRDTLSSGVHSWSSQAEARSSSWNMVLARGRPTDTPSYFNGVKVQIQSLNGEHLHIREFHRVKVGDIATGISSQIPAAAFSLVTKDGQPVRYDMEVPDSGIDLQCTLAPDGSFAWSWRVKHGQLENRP
The target of assay [10] is T2, Ephrin type-B receptor 3 (Homo sapiens) (UniProt P54753).
T2 sequence (whole entry): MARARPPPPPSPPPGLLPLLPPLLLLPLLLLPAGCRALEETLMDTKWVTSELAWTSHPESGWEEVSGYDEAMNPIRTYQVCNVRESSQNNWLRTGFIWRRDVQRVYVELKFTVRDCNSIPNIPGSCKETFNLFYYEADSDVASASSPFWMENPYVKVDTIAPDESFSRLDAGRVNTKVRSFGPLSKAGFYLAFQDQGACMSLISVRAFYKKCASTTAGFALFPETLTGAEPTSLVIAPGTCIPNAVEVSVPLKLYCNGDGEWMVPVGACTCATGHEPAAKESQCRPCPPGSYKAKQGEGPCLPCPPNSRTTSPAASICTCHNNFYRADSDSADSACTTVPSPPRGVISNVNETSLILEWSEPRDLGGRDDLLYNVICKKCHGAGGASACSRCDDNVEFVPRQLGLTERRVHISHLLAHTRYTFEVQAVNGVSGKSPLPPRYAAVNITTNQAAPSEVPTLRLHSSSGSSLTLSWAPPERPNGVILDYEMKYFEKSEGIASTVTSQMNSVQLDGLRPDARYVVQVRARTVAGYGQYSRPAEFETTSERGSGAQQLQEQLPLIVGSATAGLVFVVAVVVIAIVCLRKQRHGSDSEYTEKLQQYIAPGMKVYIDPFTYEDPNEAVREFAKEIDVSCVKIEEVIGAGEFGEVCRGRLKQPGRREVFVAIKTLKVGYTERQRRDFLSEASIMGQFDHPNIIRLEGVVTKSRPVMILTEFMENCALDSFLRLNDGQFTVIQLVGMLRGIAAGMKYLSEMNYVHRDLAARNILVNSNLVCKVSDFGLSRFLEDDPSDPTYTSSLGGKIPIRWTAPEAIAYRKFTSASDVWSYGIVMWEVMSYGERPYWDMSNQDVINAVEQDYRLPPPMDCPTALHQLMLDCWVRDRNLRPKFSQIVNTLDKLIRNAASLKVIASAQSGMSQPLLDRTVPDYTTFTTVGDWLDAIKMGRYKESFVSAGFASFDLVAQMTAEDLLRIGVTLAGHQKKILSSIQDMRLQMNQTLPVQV
Particulars: at 10 µM.

Assay [11] has as its target T3, Aurora kinase A (Homo sapiens) (UniProt O14965).
T3 sequence (whole entry): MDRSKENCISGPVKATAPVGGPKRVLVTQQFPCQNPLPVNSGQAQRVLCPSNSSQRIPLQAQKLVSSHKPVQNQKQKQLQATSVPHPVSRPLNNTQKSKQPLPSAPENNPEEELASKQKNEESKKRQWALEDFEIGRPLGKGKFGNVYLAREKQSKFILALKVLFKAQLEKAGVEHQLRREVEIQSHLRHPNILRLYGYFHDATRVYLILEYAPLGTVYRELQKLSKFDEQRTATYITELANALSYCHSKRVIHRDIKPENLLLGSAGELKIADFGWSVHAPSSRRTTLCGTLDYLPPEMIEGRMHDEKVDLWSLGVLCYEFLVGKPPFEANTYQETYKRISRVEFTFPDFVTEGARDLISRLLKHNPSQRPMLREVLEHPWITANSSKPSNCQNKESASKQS
Description: Selectivity interaction (Millipore kinase profiler) EUB0000124b STK6. To be noted: at 10 µM.

For assay [12], the target named is ALK tyrosine kinase receptor (Homo sapiens, UniProt Q9UM73). Description: Selectivity interaction (KinomeScan (DiscoverX)) EUB0000045b ALK.
ALK tyrosine kinase receptor, sequence (Q9UM73 19-1620 limits assumed): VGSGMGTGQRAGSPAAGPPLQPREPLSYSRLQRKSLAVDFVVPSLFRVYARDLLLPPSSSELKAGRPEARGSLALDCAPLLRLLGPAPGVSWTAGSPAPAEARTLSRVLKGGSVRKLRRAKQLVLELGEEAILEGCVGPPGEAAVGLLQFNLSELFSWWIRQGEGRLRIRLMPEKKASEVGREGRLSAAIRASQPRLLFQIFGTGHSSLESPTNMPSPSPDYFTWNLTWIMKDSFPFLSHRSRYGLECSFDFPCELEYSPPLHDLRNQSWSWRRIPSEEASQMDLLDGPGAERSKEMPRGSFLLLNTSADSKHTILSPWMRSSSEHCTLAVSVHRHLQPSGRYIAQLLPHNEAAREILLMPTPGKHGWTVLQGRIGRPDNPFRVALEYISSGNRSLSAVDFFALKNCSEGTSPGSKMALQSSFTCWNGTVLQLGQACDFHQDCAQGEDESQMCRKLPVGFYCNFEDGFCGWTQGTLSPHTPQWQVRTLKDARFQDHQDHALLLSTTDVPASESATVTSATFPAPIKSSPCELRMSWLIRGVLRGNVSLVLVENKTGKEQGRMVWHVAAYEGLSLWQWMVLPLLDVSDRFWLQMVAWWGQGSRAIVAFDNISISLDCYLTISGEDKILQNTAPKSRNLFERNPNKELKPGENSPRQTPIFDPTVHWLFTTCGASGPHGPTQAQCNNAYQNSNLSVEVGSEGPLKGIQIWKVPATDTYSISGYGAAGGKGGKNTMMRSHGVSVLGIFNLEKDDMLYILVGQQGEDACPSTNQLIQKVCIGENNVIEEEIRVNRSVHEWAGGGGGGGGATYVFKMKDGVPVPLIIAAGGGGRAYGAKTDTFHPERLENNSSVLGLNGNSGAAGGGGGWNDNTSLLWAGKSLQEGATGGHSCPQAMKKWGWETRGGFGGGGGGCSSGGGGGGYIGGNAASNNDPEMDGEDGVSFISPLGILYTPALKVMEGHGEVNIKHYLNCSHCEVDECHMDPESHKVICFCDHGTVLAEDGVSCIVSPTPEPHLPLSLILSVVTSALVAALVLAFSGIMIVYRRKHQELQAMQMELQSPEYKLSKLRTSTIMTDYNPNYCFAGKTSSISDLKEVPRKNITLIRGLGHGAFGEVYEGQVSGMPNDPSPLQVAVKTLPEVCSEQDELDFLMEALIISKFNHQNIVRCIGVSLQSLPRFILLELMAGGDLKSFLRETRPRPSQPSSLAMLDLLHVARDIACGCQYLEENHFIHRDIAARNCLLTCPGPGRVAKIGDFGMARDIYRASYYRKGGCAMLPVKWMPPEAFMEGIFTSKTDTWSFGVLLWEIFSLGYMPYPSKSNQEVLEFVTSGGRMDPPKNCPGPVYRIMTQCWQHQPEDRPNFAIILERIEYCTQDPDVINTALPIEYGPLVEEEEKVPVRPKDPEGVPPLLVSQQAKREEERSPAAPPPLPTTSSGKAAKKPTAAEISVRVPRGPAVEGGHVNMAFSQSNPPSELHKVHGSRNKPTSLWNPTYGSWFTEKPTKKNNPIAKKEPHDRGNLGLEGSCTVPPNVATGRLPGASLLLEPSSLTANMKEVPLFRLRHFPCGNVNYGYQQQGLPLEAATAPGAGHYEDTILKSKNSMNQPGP
Assay [13] deals with Serine/threonine-protein kinase PAK 4 (Homo sapiens, UniProt O96013). Description: Selectivity interaction (KinomeScan (DiscoverX)) EUB0000595a PAK4. To be noted: at 10 µM.
In assay [14] the target is Protein kinase C theta type (Homo sapiens, UniProt Q04759). Description: Selectivity interaction (KinomeScan (DiscoverX)) EUB0000595a PRKCQ. Particulars: at 10 µM.
Protein kinase C theta type, sequence (Q04759 whole entry, looked up): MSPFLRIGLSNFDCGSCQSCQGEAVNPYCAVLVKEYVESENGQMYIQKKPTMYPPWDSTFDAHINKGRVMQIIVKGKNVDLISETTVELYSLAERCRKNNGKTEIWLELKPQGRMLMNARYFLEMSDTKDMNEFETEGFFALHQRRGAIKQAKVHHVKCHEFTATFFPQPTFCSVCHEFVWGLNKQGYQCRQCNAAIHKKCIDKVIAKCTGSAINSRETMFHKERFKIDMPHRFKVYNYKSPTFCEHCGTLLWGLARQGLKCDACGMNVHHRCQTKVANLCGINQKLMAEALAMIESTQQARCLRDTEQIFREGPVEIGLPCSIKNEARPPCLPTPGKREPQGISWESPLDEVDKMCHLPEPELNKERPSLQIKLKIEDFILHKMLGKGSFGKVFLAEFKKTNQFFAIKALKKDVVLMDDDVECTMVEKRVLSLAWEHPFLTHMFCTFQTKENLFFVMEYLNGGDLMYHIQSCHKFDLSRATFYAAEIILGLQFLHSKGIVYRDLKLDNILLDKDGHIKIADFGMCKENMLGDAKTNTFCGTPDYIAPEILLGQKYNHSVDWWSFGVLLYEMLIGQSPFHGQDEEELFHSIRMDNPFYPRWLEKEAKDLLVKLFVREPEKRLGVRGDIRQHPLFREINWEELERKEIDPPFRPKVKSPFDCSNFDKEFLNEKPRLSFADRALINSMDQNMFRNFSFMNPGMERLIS

Rho-associated protein kinase 1 (Homo sapiens), sequence (Q13464 2-1354 limits assumed): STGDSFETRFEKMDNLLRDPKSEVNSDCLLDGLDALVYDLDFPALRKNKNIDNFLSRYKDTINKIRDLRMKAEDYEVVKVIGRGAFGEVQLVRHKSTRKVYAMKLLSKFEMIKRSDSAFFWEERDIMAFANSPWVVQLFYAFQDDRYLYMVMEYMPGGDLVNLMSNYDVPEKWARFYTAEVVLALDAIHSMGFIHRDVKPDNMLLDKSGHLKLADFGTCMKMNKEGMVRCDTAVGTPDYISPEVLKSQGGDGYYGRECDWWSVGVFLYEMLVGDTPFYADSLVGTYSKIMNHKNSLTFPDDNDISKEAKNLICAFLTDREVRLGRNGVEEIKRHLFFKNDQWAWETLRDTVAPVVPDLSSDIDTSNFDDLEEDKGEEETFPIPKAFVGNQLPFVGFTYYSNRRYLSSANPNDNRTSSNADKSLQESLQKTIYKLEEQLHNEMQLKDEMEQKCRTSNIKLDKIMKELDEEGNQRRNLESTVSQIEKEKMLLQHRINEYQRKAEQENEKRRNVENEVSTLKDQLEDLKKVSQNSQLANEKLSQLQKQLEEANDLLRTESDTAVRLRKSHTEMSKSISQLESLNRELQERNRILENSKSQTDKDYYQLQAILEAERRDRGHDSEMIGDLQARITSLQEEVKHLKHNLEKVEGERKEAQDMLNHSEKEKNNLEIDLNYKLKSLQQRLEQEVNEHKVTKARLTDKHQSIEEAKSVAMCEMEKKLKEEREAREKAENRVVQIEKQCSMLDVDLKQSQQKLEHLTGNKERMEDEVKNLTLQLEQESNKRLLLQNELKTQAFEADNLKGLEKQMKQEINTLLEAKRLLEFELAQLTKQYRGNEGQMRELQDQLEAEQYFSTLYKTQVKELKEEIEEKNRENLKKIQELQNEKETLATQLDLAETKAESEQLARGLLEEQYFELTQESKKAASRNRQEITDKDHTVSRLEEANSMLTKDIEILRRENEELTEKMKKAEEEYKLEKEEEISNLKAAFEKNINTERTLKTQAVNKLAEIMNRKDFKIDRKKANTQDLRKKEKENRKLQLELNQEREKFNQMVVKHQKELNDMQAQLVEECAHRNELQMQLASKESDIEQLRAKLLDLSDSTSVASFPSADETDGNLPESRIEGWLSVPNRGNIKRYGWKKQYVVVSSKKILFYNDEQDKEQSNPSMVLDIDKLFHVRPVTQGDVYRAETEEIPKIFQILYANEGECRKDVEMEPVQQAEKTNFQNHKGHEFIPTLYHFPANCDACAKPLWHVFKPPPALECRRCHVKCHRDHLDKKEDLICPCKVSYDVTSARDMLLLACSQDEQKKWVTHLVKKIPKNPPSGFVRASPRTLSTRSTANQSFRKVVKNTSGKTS

Compound `Cn1cc(-n2cnc3c(NCc4nc5cc(Cl)c(Cl)cc5[nH]4)nc(N4CCOCC4)nc32)cn1` yielded a % of control in [1] of 2.63%.

In turn, `C=CC(=O)Nc1ccc(C(=O)Nc2[nH]nc3c2CN(C(=O)N[C@H](CN(C)C)c2ccccc2)C3(C)C)cc1` returned a % of engagement in assay [2] of 3.8%.

In turn, `CN(C)C/C=C/C(=O)Nc1ccc(C(=O)N2CCCC(Nc3ncc(Cl)c(-c4c[nH]c5ccccc45)n3)C2)cc1` (stereo not given) came in with a % of control in [3] of 98%.

As for `COc1cc(N(C)c2ccnc3ccc(C(F)(F)F)cc23)cc(OC)c1OC`, the % binding in assay [4] was 83%.

Consider `N#Cc1cccc(-c2c[nH]c3ncnc(N4CCOCC4)c23)c1`, for which the % of inhibition in assay [5] came out at 2%; in assay [6], 8%.

Turning to `CC[C@@H]1[C@H](F)C(=O)N[C@@H]1COc1nccc2cc(C(N)=O)c(OC)cc12` [ZIMLOVISERTIB], the % of inhibition in [7] was -2.1%; in assay [8] it was -22.9%; in [9] it was -0.0527%.

As to `CCN(CC)CCCCNc1ncc2cc(-c3cc(OC)cc(OC)c3)c(NC(=O)NC(C)(C)C)nc2n1`, in assay [10], the % of control was 100%.

For the compound `CC(=O)Nc1cccc(-n2c(=O)n(C3CC3)c(=O)c3c(Nc4ccc(I)cc4F)n(C)c(=O)c(C)c32)c1`, the % of control in assay [11] was determined as 124%.

`C=CC(=O)Nc1cc(-n2c(=O)ccc3cnc4ccc(-c5ccc(NS(C)(=O)=O)cc5)cc4c32)ccc1C`: the % of control in assay [12] (at 1 µM) and in assay [12] (at 10 µM) was 100% throughout.

Take `COCC(=O)NC/C=C/c1ccc2ncnc(Nc3ccc(Oc4ccc(C)nc4)c(C)c3)c2c1` [CP-724714]: the figures for the % of control in assay [13] and in [14] were 87% and 100%, respectively.
